Here are results for one compound from patent US20230096028A1, “BICYCLIC HETEROCYCLYL COMPOUNDS AND USES THEREOF” (Revolution Medicines, Inc., priority 2019, published 2023).

This assay deals with NCI-H358 xenograft. The assay is described as follows: In vivo tumor cell growth, NSCLC NCI-H358 xenograft model. Also noted: species or system female balb/c athymic nude mice. The protocol: Objective: To evaluate the efficacy of the SOS1 inhibitor Compound A alone and in combination with a KRAS G12C inhibitor MRTX1257 following oral administration in the human non-small cell lung cancer (NSCLC) NCI-H358 xenograft model in nude mice.
Methods: The effect of a SOS1 inhibitor of the present invention (Compound A) on tumor cell growth in vivo was evaluated in the NSCLC NCI-H358 xenograft model using female balb/c athymic nude mice (6-8 weeks old). Mice were implanted with H358 tumor cells in 50% matrigel (5^e6 cells/mouse) subcutaneously in the flank. Once tumors reached an average size of ˜200 mm^3, mice were randomized to treatment groups and administration of test article or vehicle (2% HPMC, 0.1% tween in 50 mM sodium citrate buffer pH 4). Body weight and tumor volume (using digital calipers) were measured twice a week until study endpoints. Compounds were administered by oral gavage daily.

Consider `C=CC(=O)N1CCN(c2nc(OC[C@@H]3CCCN3C)nc3c2CCN(c2cccc4cccc(C)c24)C3)C[C@@H]1CC#N` [MRTX1257], for which the “tumor growth inhibition, TGI” value (10 mg/kg, repeated daily dosing, single agent) was 76%. The tumor response entry (50 mg/kg, H358 model) is “achieved regressions”.
